# Laboratory results from US6903130B1, “Pyrrolidineacetamide derivative alone or in combination for treatment of cns disorders” (UCB S.A., priority 1999, dated 2005).
# Test system: rats in which hyperactivity has been induced using the DEX-CDP mixture
# Experiment: Y maze test, hyperactivity induced by DEX-CDP mixture (Example 1)
# Type: in vivo, rat
# Settings: for Number of arms visited: median; for Effect on hyperactivity induced by DEX-CDP (in words): hyperactive rats; for Effect on hyperactivity induced by DEX-CDP (in words) / Effect of the compound per se on activity of non-hyperactive control (in words): i.p.; for Effect of the compound per se on activity of non-hyperactive control (in words): non-hyperactive control rats
# Description: An increase in motor activity is a frequent symptom of manic disorders and as a consequence, it is often used as a model of mania in laboratory animals. […] Further, not all activity tests are suitable for observing reproducible hyperactivity.
# Hyperactivity induced in rodents tested in a symmetrical v maze by a mixture of dexamphetamine and chlordiazepoxide (DEX-CDP) has been used by a number of researchers to study the effect of lithium (Cox C. et al., “Lithium attenuates “manic” activity in rats” Nature (1971), vol. 232 p 336-338—Vale A. L. and Ratcliffe F., “Effect of lithium administration on rat brain 5-hydroxyindole levels in a possible animal model of mania” Psychopharamacol. (1987), vol.91 p 352-355), or more recently the effect of the antiepiteptic “Valproate” (Cao B. J. and Peng N. A., “Magnesium valproate attenuates hyperactivity induced by dexamphetamine-chlordiazepoxide mixture in rodents” Eur. J. Pharmacol. (1993), vol. 237, p 177-181).
# Lithium and valproate were also tested and used as reference compounds.
# The animals used were male Sprague-Dawley rats (origin: OFA, IFFA CREDO, Belgium) weighing between 210 and 290 grams. They were placed in stainless steel cages in groups of 8. The day prior to the experiment, they were placed in macrolon cages (4 animals per cage: 38×27×15 centimeters (cm)) with the floor covered with sawdust. The cages were placed in an animal holding chamber provided with air conditioning, illuminated from 0600 hrs to 1800 hrs. Food and water were available “ad libitum”.
# The apparatus used was a Y maze (each arm being 40 cm long and 15 cm wide with 35 cm walls) constructed from grey Plexiglass, located in a faintly illuminated room (Less than 5 Lux at ground level) and used to measure the rats' activity. The activity was estimated by recording the number of entries into the arms of the maze over a five-minute period. A video camera was positioned at a height of one meter above the apparatus and connected to a monitor located in an adjacent room in which an experimenter counted the number of entries into the arms.
# The injection of different compounds into the rats was performed under the following conditions. 12.5 mg/kg of chlordiazepoxide and 1.18 mg/kg of D-amphetamine sulfate were dissolved in a saline solution (0.9%) and administered simultaneously by subcutaneous injection 35 minutes before the test in a volume of 1 ml/kg. 17 and 54 mg/kg of levetiracetam were dissolved in a saline aqueous solution (0.9%) and injected intraperitoneally 30 minutes before the test (table 4). 50, 100 and 200 mg/kg of sodium valproate were dissolved in an aqueous saline solution (0.9%) and injected intraperitoneally 15 minutes before the test (table 2). 2 and 4 milliequivalents (meq) of […] of lithium chloride were dissolved in a saline solution (0.9%) and injected intraperitoneally 215 minutes before the test (table 1). The test drugs were injected in a volume of 5 ml/kg.
# The effects of the different drugs were studied separately. In each experiment, the animals were placed in different groups ([…]) in a random fashion. During the test, each rat was placed in the center of the apparatus and the number of visits into the arms was recorded as an activity index.
# For the results to be properly statistically analyzed, they were expressed as median with the first and third quartile. General comparisons of the statistics were carried out using a Kruskal-Wallis test for the controls and the effect of the compound per se. This test was also used to compare the effect of the (DEX-CDP) mixture, and the effect of the compounds against the hyperactivity induced by the (DEX-CDP) mixture.
smiles,measurement,setting,value
"CC[C@@H](C(N)=O)N1CCCC1=O [Levetiracetam, (S)-(−)α-ethyl-2-oxo-1-pyrrolidineacetamide]",Number of arms visited,DEX-CDP mixture + levetiracetam 17 mg/kg i.p.,36
same,Number of arms visited,DEX-CDP mixture + levetiracetam 54 mg/kg i.p.,26
same,Effect on hyperactivity induced by DEX-CDP (in words),,significantly counteracted the hyperactivity induced by DEX-CDP at a dose of 54 mg/kg
same,Effect on hyperactivity induced by DEX-CDP (in words),listed as levetiracetam,normalization to the activity level of the non-hyperactive control rats
same,Number of arms visited,"levetiracetam 17 mg/kg i.p. alone, no mixture",31
same,Number of arms visited,"levetiracetam 54 mg/kg i.p. alone, no mixture",28
same,Effect of the compound per se on activity of non-hyperactive control (in words),,only a slight hyperactivity at a dose of 17 mg/kg
"CCCC(CCC)C(=O)[O-].[Na+] [Valproate, sodium valproate]",Number of arms visited,DEX-CDP mixture + sodium valproate 50 mg/kg i.p.,38
same,Number of arms visited,DEX-CDP mixture + sodium valproate 100 mg/kg i.p.,39
same,Number of arms visited,DEX-CDP mixture + sodium valproate 200 mg/kg i.p.,20
same,Effect on hyperactivity induced by DEX-CDP (in words),,significantly counteracted hyperactivity at a dose of 200 mg/kg
same,Effect of the compound per se on activity of non-hyperactive control (in words),,strong dose dependent hyperactivity
same,Number of arms visited,"sodium valproate 50 mg/kg i.p. alone, no mixture",28
same,Number of arms visited,"sodium valproate 100 mg/kg i.p. alone, no mixture",34
same,Number of arms visited,"sodium valproate 200 mg/kg i.p. alone, no mixture",40
